According to patent US20260049077A1, “Neurotrophic Receptor Tyrosine Kinase (NTRK) Inhibitors and Methods Using Same” (Baylor College of Medicine, priority 2022, published 2026):

Legend:
endometriotic lesions = experiment: Endometriosis mouse model, lesion efficacy; format: in vivo
Procedure: FIGS. 17A-17F depict the robust efficacy of the inhibitory compounds of the present disclosure as NTRK2 inhibitors for inhibition of endometriotic lesion growth in mice utilizing CDD-3132 as an example. FIG. 17A provides a schematic overview of the experiment performed. FIGS. 17B-17C provide photographs showing excised lesions with administration of a control (FIG. 17B) or CDD-3132 (10 mg/kg/day) (FIG. 17C).
(§1) In one aspect, the present disclosure provides exemplary data relating to the administration of NTRK2 inhibitors in a mouse model of endometriosis (FIG. 14). In certain embodiments, the recipient mouse is administered the NTRK2 inhibitor and/or controls on day 14 after intraperitoneal injection of endometrium of the donor mouse. In certain embodiments, the recipient mouse is sacrificed and quantitatively assessed on day 28.

[1] = Metabolic stability in human liver microsomes (HLM)
[2] = Metabolic stability in mouse liver microsomes (MLM)
NTRK2 = NTRK2 (Homo sapiens (Human), UniProt Q16620); experiment: NTRK2 inhibition (IC50); format: biochemical
NTRK2, sequence (Q16620 32-822): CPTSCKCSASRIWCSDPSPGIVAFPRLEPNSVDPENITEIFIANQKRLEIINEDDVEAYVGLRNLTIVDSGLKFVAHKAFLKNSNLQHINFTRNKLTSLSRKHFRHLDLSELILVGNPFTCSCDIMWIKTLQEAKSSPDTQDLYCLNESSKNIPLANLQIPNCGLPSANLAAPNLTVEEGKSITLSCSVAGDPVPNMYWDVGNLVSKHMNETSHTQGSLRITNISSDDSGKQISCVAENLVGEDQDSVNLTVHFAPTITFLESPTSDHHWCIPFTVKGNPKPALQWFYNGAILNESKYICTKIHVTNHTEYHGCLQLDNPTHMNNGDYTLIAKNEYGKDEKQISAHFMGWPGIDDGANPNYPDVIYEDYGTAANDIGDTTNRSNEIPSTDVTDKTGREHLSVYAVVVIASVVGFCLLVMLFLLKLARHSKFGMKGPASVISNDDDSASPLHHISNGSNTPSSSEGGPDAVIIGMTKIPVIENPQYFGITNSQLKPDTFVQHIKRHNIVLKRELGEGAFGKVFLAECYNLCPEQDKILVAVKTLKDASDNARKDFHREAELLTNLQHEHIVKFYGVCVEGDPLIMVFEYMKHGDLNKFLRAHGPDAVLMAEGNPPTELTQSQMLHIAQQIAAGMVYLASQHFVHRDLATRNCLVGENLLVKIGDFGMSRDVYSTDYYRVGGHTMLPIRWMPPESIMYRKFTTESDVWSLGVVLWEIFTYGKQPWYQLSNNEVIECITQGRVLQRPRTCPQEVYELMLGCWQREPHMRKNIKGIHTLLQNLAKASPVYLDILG

NTRK3 = NTRK3 (Homo sapiens (Human), UniProt Q16288); experiment: NTRK3 inhibition (IC50); conditions: read-out: NTRK3 IC50
NTRK3, sequence (Q16288 32-839): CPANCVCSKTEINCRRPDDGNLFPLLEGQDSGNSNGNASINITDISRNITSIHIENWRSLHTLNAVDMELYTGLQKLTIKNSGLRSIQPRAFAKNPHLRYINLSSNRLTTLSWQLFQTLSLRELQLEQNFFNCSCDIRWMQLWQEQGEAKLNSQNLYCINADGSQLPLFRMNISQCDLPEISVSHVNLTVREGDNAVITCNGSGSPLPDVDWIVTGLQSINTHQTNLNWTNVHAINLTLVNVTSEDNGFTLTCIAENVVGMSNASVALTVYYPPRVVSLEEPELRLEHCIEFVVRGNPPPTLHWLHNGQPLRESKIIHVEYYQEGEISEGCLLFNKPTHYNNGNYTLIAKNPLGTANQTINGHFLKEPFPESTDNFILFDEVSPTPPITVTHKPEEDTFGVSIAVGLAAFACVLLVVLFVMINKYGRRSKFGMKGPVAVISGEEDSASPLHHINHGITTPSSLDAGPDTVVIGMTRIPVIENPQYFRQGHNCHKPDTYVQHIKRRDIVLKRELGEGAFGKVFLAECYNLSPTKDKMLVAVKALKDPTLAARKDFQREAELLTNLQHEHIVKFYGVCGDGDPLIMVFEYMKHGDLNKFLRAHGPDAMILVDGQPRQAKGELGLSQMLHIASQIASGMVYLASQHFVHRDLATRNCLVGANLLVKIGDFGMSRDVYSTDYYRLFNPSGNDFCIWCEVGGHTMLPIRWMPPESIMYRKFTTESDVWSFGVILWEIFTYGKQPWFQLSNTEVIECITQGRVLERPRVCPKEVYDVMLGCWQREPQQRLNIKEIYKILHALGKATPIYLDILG

NTRK1 = NTRK1 (Homo sapiens (Human), UniProt P04629); experiment: NTRK1 inhibition (IC50); conditions: read-out: NTRK1 IC50
NTRK1, sequence (P04629 33-796): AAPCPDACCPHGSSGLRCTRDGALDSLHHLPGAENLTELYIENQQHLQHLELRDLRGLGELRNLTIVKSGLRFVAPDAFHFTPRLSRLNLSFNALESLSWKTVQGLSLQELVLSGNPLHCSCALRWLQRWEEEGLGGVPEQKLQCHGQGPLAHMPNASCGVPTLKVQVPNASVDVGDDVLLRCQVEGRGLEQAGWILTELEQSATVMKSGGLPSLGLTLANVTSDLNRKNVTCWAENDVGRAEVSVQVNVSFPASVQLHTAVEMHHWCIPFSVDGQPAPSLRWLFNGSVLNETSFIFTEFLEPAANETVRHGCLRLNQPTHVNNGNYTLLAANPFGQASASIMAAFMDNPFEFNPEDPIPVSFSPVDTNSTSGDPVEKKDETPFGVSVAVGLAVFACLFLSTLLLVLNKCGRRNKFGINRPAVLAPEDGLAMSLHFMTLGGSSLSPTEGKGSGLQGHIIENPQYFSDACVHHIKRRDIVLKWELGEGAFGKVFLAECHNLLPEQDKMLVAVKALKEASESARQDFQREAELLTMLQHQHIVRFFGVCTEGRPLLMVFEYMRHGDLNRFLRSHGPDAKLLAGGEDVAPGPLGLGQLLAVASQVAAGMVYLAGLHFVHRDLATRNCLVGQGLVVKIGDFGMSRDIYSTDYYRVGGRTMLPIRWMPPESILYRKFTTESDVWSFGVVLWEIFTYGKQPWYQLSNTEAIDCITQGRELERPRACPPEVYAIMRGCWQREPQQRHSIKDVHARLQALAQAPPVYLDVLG

[3] = Brain uptake in mice 24 hours post-administration; format: in vivo, mouse; conditions: mouse, brain, 24 h, read-out: Brain Concentration at 24 h (ng/mg)
[4] = Endometriosis mouse model, liver and kidney toxicity (organ weight, ALT, AST); format: in vivo; design: ALT (Mean ± SD) / AST (Mean ± SD): unit not given here; conditions: for effect on liver and/or kidney weight and/or serum elevation of ALT and AST: 10 mg/kg, mice with endometriotic lesions
Procedure: as §1

[5] = i.p. dose of 10 mg/kg/day for 14 days
[6] = 10 mg/kg, compared to vehicle control

| Compound | half-life [1] | half-life [2] | IC50 (NTRK2) | IC50 (NTRK3) | IC50 (NTRK1) | other results |
| --- | --- | --- | --- | --- | --- | --- |
| O=C(Nc1ccccc1C(=O)NC1CCCCNC1=O)c1cc2ccccc2s1 (stereo not shown) [ANA-12, reference compound] | – | – | – | – | – | endometriotic lesion regression (endometriotic lesions; mice): endometriotic lesion regression |
| Cc1nnc2n1-c1ccc(Cl)cc1C(c1ccccc1)=NC2 [Alprazolam] | 12.2 h | 5.83 h | – | – | – | – |
| O=C(Nc1cccc(C(F)(F)F)c1)N(Cc1ccn2nccc2c1)C1CCC1 [CDD-2273, 1-cyclobutyl-1-(pyrazolo[1,5-a]pyridin-5-ylmethyl)-3-(3-(trifluoromethyl)phenyl)urea] | 0.258 h | 0.137 h | 1320 nM | – | – | – |
| O=C(Nc1ccccc1C(F)(F)F)N(Cc1ccn2nccc2c1)C1CCC1 [CDD-2274, 1-cyclobutyl-1-(pyrazolo[1,5-a]pyridin-5-ylmethyl)-3-(2-(trifluoromethyl)phenyl)urea] | 0.192 h | 0.0833 h | 4.5 nM | 5.3 nM | 12.4 nM | – |
| O=C(Nc1ccc(OC(F)(F)F)cc1)N(Cc1ccn2nccc2c1)C1CC1 [CDD-2275, 1-cyclopropyl-1-(pyrazolo[1,5-a]pyridin-5-ylmethyl)-3-(4-(trifluoromethoxy)phenyl)urea] | 1.5 h | 0.933 h | 46 nM | – | – | – |
| O=C(Nc1ccc(OC(F)(F)F)cc1)N(Cc1ccn2nccc2c1)C1CCCC1 [CDD-2276, 1-cyclopentyl-1-(pyrazolo[1,5-a]pyridin-5-ylmethyl)-3-(4-(trifluoromethoxy)phenyl)urea] | 0.233 h | 0.583 h | 19 nM | – | – | – |
| CC(C)N(Cc1ccn2ncc(F)c2c1)C(=O)Nc1ccc(OC(F)(F)F)cc1 [CDD-2734, 1-((3-fluoropyrazolo[1,5-a]pyridin-5-yl)methyl)-1-isopropyl-3-(4-(trifluoromethoxy)phenyl)urea] | 0.967 h | 0.35 h | 5.3 nM | – | 36 nM | – |
| NC(=O)c1cnn2ccc(CN(C(=O)Nc3ccc(OC(F)(F)F)cc3)C3CC3)cc12 [CDD-2738, 5-((1-cyclopropyl-3-(4-(trifluoromethoxy)phenyl)ureido)methyl)pyrazolo[1,5-a]pyridine-3-carboxamide] | 6.35 h | 3.73 h | 0.52 nM | 1.51 nM | 7.5 nM | concentration at 24 h [3]: 2300 ng/g |
| CC(C)N(Cc1ccn2ncc(C#N)c2c1)C(=O)Nc1ccc(OC(F)(F)F)cc1 [CDD-2741, 1-((3-cyanopyrazolo[1,5-a]pyridin-5-yl)methyl)-1-isopropyl-3-(4-(trifluoromethoxy)phenyl)urea] | 2.13 h | 0.683 h | 5.8 nM | 4.4 nM | 11.7 nM | – |
| CC(C)N(Cc1ccn2ncc(C(=N)NO)c2c1)C(=O)Nc1ccc(OC(F)(F)F)cc1 [CDD-2744, N-hydroxy-5-((1-isopropyl-3-(4-(trifluoromethoxy)phenyl)ureido)methyl)pyrazolo[1,5-a]pyridine-3-carboximidamide] | 6.47 h | 2.02 h | 1.7 nM | 2.9 nM | 18.1 nM | – |
| CN(Cc1ccn2ncc(C(N)=O)c2c1)C(=S)Nc1ccc(OC(F)(F)F)cc1 [CDD-3118, 5-((1-methyl-3-(4-(trifluoromethoxy)phenyl)thioureido)methyl)pyrazolo[1,5-a]pyridine-3-carboxamide] | 6.37 h | 11.5 h | 19 nM | 21.5 nM | 151 nM | – |
| NC(=O)c1cnn2ccc(CNC(=S)Nc3ccc(OC(F)(F)F)cc3)cc12 [CDD-3131, 5-((3-(4-(trifluoromethoxy)phenyl)thioureido)methyl)pyrazolo[1,5-a]pyridine-3-carboxamide] | 3.95 h | 5.85 h | 132 nM | 153 nM | 749 nM | – |
| CN(Cc1ccn2ncc(C(N)=O)c2c1)C(=O)COc1ccc(OC(F)(F)F)cc1 [CDD-3132, 5-((N-methyl-2-(4-(trifluoromethoxy)phenoxy)acetamido)methyl)pyrazolo[1,5-a]pyridine-3-carboxamide] | 11.5 h | 11.8 h | 517 nM | 1370 nM | 4560 nM | effect on liver and/or kidney weight and/or serum elevation of ALT and AST [4]: little to no effect; ALT (Mean ± SD) [4, 5]: 20.5 ± 12.6; AST (Mean ± SD) [4, 5]: 33.5 ± 20.6; impact on liver and kidney weights ([4]; mice treated for 14 days): no significant impact; number, volume and mass of lesions (endometriotic lesions; [6]): reduction of lesions, volume of lesions, and mass of lesions; size of endometriotic lesions (endometriotic lesions; [6]): decreased size of endometriotic lesions; endometriotic lesion growth (endometriotic lesions; 10 mg/kg, excised lesions): inhibiting endometriotic lesion growth; proliferation, vascularization, macrophage infiltration, inflammation within endometriotic lesions (endometriotic lesions; 10 mg/kg, H&E staining, confocal microscopy): reduction of proliferation, vascularization, macrophage infiltration, and/or inflammation |
| CC(C)N(Cc1ccn2ncc(C(N)=O)c2c1)C(=O)COc1ccc(OC(F)(F)F)cc1 [CDD-3133, 5-((N-isopropyl-2-(4-(trifluoromethoxy)phenoxy)acetamido)methyl)pyrazolo[1,5-a]pyridine-3-carboxamide] | 10 h | 3.08 h | 4.3 nM | 10.1 nM | 16.6 nM | – |
| CC(C)N(Cc1ccn2ncc(C(N)=O)c2c1)C(=O)COc1ccc(C(C)(C)C)cc1 [CDD-3184, 5-((2-(4-(tert-butyl)phenoxy)-N-isopropylacetamido)methyl)pyrazolo[1,5-a]pyridine-3-carboxamide] | 1.78 h | 0.102 h | 6.7 nM | 15.3 nM | 61 nM | – |
| CC(C)N(Cc1ccn2ncc(C(N)=O)c2c1)C(=O)CNc1ccc(OC(F)(F)F)cc1 [CDD-3254, 5-((N-isopropyl-2-((4-(trifluoromethoxy)phenyl)amino)acetamido)methyl)pyrazolo[1,5-a]pyridine-3-carboxamide] | 3.22 h | 2.38 h | 59 nM | 142 nM | 277 nM | – |
| C=C(C)c1ccc(OCC(=O)N(Cc2ccn3ncc(C(N)=O)c3c2)C(C)C)cc1 [CDD-3255, 5-((N-isopropyl-2-(4-(prop-1-en-2-yl)phenoxy)acetamido)methyl)pyrazolo[1,5-a]pyridine-3-carboxamide] | 0.75 h | 0.317 h | 31.5 nM | 54 nM | 357 nM | – |
| CC(=O)c1ccc(OCC(=O)N(Cc2ccn3ncc(C(N)=O)c3c2)C(C)C)cc1 [CDD-3256, 5-((2-(4-acetylphenoxy)-N-isopropylacetamido)methyl)pyrazolo[1,5-a]pyridine-3-carboxamide] | > 3.33 h | > 3.33 h | 223 nM | 312 nM | 1870 nM | – |
| CC(=O)c1ccc(OCC(=O)N(C)Cc2ccn3ncc(C(N)=O)c3c2)cc1 [CDD-3257, 5-((2-(4-acetylphenoxy)-N-methylacetamido)methyl)pyrazolo[1,5-a]pyridine-3-carboxamide] | > 3.33 h | > 3.33 h | 10600 nM | 10900 nM | 58200 nM | – |
| CN(Cc1ccn2ncc(C(N)=O)c2c1)C(=O)CNc1ccc(OC(F)(F)F)cc1 [CDD-3258, 5-((N-methyl-2-((4-(trifluoromethoxy)phenyl)amino)acetamido)methyl)pyrazolo[1,5-a]pyridine-3-carboxamide] | 4.5 h | 5.63 h | 963 nM | 2320 nM | 11000 nM | – |
| CN(Cc1ccn2ncc(C(N)=O)c2c1)S(=O)(=O)Nc1ccc(OC(F)(F)F)cc1 [CDD-3308, 5-((methyl(N-(4-(trifluoromethoxy)phenyl)sulfamoyl)amino)methyl)pyrazolo[1,5-a]pyridine-3-carboxamide] | – | – | 4440 nM | 4320 nM | 28400 nM | – |
| CC(C)(CO)n1cc(C(=O)c2cncc(NC(=O)Cc3ccc(Cl)cn3)c2)c2cnc(N)nc21 [PF-0672, reference compound] | – | – | – | – | – | effect on liver and/or kidney weight and/or serum elevation of ALT and AST [4]: little to no effect |
| C[C@H]1CNC(=O)c2cnn3ccc(nc23)N[C@H](C)c2cc(F)ccc2O1 [Reprotrectinib, (3R,11S)-6-fluoro-3,11-dimethyl-10-oxa-2,13,17,18,21-pentazatetracyclo[13.5.2.04,9.018,22]docosa-1(21),4(9),5,7,15(22).16,19-heptaen-14-one, reference compound] | – | – | – | – | – | HLM t1/2 [1]: 4.23 h; MLM t1/2 [2]: 2.78 h |
| C[C@@H]1CCc2ncc(F)cc2[C@H]2CCCN2c2ccn3ncc(c3n2)C(=O)N1 [Selitrectinib, (6R,15R)-9-fluoro-15-methyl-2,11,16,20,21,24-hexazapentacyclo[16.5.2.02,6.07,12.021,25]pentacosa-1(24),7(12),8,10,18(25),19,22-heptaen-17-one, reference compound] | 4.07 h | 0.533 h | – | – | – | – |
